How the values were obtained:
[1] = target: Casein kinase I isoform delta (Homo sapiens, UniProt P48730); assay: Inhibition of full length recombinant human GST-tagged CSNK1D expressed in baculovirus expression system using casein as substrate incubated for 10 mins in presence of ATP by KinaseGlo luminescence assay
[2] = target: Casein kinase 1, delta tv1 (Sus scrofa, UniProt M3VH47); assay: Inhibition of porcine brain CK-1delta using RRKHAAIGpSAYSITA peptide as substrate incubated for 30 mins in presence of [gamma-33P]-ATP by scintillation counting method
Chain of Casein kinase 1, delta tv1 (M3VH47 whole entry): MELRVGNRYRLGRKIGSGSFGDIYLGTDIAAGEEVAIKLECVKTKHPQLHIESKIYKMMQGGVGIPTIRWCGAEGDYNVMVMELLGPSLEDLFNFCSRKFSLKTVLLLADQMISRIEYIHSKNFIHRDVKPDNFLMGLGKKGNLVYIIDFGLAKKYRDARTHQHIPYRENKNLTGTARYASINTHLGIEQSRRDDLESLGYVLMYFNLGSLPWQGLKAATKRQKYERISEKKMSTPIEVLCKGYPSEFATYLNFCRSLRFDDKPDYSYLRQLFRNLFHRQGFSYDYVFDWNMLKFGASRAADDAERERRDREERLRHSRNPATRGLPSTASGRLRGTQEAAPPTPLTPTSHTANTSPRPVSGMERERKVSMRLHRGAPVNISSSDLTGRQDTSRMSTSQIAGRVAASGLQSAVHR

Chain of Casein kinase I isoform delta (P48730 whole entry, canonical isoform): as the sequence (M3VH47 whole entry) above, with A340V, A401P, A406S, A412V counted along it

| IC50 [1] [µM] | IC50 [2] [µM] | Compound |
| --- | --- | --- |
| 13 |  | Oc1cc(-c2cccc(Br)c2)nc2ccc3[nH]ccc3c12 |
| 15.2 |  | CCn1ccc2c3c(=O)cc(-c4cccc5ccccc45)[nH]c3ccc21 |
|  | 0.0077 | Nc1nccc(-c2c(-c3ccc(F)cc3)ncn2C2CCCCC2)n1 |

Source: ChEMBL document CHEMBL4616698, “Scaffold Repurposing of in-House Chemical Library toward the Identification of New Casein Kinase 1 δ Inhibitors” (ACS Med Chem Lett, 2020)
